Here are results for 25 substances from patent US20210189342A1, “COMPOSITIONS AND METHODS FOR MODULATING MONOCYTE AND MACROPHAGE INFLAMMATORY PHENOTYPES AND IMMUNOTHERAPY USES THEREOF” (Verseau Therapeutics, Inc., priority 2018, published 2021).

The IC50 is the point on the concentration scale where inhibition reaches its midpoint.

The subject of one data set is CD74. In words: siRNA dose response, CD74 mRNA knockdown, bDNA Assay. In kind it is cell-based, human. The settings on record: THP-1, 24 hr. The method, then: (§1) Dose response curves for siRNAs were generated in vitro using a variety of cell lines according to Table 4.
(§2) Briefly, cells were seeded in 96-well plates and reverse transfected with siRNA, Lipofectamine® 2000 (0.5 uL/well; ThermoFisher), and, in some cases, a reporter plasmid (50 ng/well). The reporter plasmid (psiCHECK™-2, Promega) encoded both firefly luciferase and the gene of interest fused to renilla luciferase; silencing of the gene of interest results in proportional silencing of renilla luciferase but leaves firefly luciferase unaffected as an internal control.
(§3) After 24 hr incubation at 37° C., mRNA knockdown was measured using an endpoint assay. For targets without a reporter plasmid, a branched DNA (bDNA) assay was performed according to the manufacturer's instructions (QuantiGene® Singleplex Gene Expression Assay, ThermoFisher) to measure both the target gene and GAPDH (housekeeping gene) mRNA. Data are plotted as siRNA concentration (nM) vs. remaining mRNA (ratio of target gene to GAPDH, normalized to mock siRNA-transfected cells). For targets with a reporter plasmid, a Dual-Glo® Luciferase Assay was performed according to the manufacturer's instructions (Promega) to measure firefly and renilla luciferase expression. Data are plotted as siRNA concentration (nM) vs. remaining mRNA (ratio of renilla to firefly luminescence, normalized to mock siRNA-transfected cells).
(§4) For all dose response curves, a 4-parameter logistic model was applied to determine the IC50 of each siRNA sequence (Table 5 and FIG. 2). Data shown in Table 5 and FIG. 2 represent the mean of quadruplicates, +/−standard deviation.
“XD-09223: siRNA targeting CD74 (sense 5'-ggAGcuGucGGGAaGAucAdTsdT-3'; antisense 5'-UGAUCUUCCCGAcAGCUCCdTsdT-3'; as printed in the source, key not given here)”: the concentration for half-maximal inhibition (IC50) is 0.34 nM.

In turn, “XD-09224: siRNA targeting CD74 (sense 5'-gcGcGAccuuAucuccAAcdTsdT-3'; antisense 5'-GUUGGAGAuAAGGUCGCGCdTsdT-3'; as printed in the source, key not given here)” returned an IC50 of 1.98 nM.

Regarding “XD-09226: siRNA targeting CD74 (sense 5'-cuGGAcAAAcuGAcAGucAdTsdT-3'; antisense 5'-AGACUGUcAGUUUGUCcAGdTsdT-3'; RNA with 2'-O-methyl and phosphorothioate modifications, case key not given here, as printed in the source, key not given here)”, the IC50 was 0.143 nM.

In the case of “XD-09227: siRNA targeting CD74 (sense 5'-ggAAcuGGAGGAcccGucudTsdT-3'; antisense 5'-AGACGGGUCCUCcAGUUCCdTsdT-3'; RNA with 2'-O-methyl and phosphorothioate modifications, case key not given here, as printed in the source, key not given here)”, the IC50 was determined as 0.583 nM.

Turning to “XD-09230: siRNA targeting CD74 (sense 5'-gacAAAccAAGucgGaacAdTsdT-3'; antisense 5'-UGUUCCGACUUGGUUUGUCdTsdT-3'; as printed in the source, key not given here)”, the IC50 came to 0.196 nM.

Consider “XD-09231: siRNA targeting CD74 (sense 5'-aaAccAAGucGGAacAGcAdTsdT-3'; antisense 5'-UGCUGUUCCGACUUGGUUUdTsdT-3'; RNA with 2'-O-methyl and phosphorothioate modifications, case key not given here, as printed in the source, key not given here)”, for which the IC50 was found to be 0.255 nM.

The substance “XD-09232: siRNA targeting CD74 (sense 5'-agcuAGAcAGAuccccGuudTsdT-3'; antisense 5'-AACGGGGAUCUGUCuAGCUdTsdT-3'; RNA with 2'-O-methyl and phosphorothioate modifications, case key not given here, as printed in the source, key not given here)” showed an IC50 of 0.747 nM.

The substance “XD-09235: siRNA targeting CD74 (sense 5'-ccAAuGuuuuccAcccAuAdTsdT-3'; antisense 5'-uAUGGGUGGAAAAcAUUGGdTsdT-3'; as printed in the source, key not given here)” came in with an IC50 of 0.245 nM.

For the substance “XD-09237: siRNA targeting CD74 (sense 5'-ccAuAAuccuuucuGccGAdTsdT-3'; antisense 5'-UCGGcAGAAAGGAUuAUGGdTsdT-3'; as printed in the source, key not given here)”, the IC50 came out at 1.84 nM.

With “XD-09239: siRNA targeting CD74 (sense 5'-ggccAuGGuucAcauuAGAdTsdT-3'; antisense 5'-UCuAAUGUGAACcAUGGCCdTsdT-3'; as printed in the source, key not given here)”, the midpoint of inhibition, the IC50, lay at 0.07 nM.

For a further data set, the system named is SIGLEC7. In words: siRNA dose response, SIGLEC7 mRNA knockdown, Dual-Glo Luciferase Assay. In kind it is cell-based, human. The settings on record: Hepa1-6 + reporter plasmid, 24 hr. The method, then:
as §1, §2, §3, §4
“XD-10601: siRNA targeting SIGLEC7 (sense 5'-gaGuAACcGGAAGgAuuasa-3'; antisense 5'-dTUAAUCCUUCCGGUuACUCusu-3'; RNA with 2'-O-methyl and phosphorothioate modifications, case key not given here, as printed in the source, key not given here)”: the 50% inhibitory concentration (IC50) came to 0.127 nM.

As for “XD-10602: siRNA targeting SIGLEC7 (sense 5'-guAAccGGAAGGAuuAcusa-3'; antisense 5'-dTAGuAAUCCUUCCGGUuACusu-3'; RNA with 2'-O-methyl and phosphorothioate modifications, case key not given here, as printed in the source, key not given here)”, the IC50 worked out at 3.53 nM.

With “XD-10603: siRNA targeting SIGLEC7 (sense 5'-cgGAAGGAuuAcucGcugsa-3'; antisense 5'-dTCAGCGAGuAAUCCUUCCGusu-3'; RNA with 2'-O-methyl and phosphorothioate modifications, case key not given here, as printed in the source, key not given here)”, the IC50 was determined as 0.029 nM.

With “XD-10604: siRNA targeting SIGLEC7 (sense 5'-ggAAGGAuuAcucgcuGasa-3'; antisense 5'-dTUcAGCGAGuAAUCCUUCCusu-3'; RNA with 2'-O-methyl and phosphorothioate modifications, case key not given here, as printed in the source, key not given here)”, the IC50 stood at 0.032 nM.

Consider “XD-10605: siRNA targeting SIGLEC7 (sense 5'-ggAuuACucGcuGacGAusa-3'; antisense 5'-dTAUCGUcAGCGAGUAAUCCusu-3'; RNA with 2'-O-methyl and phosphorothioate modifications, case key not given here, as printed in the source, key not given here)”, for which the IC50 turned out to be 0.022 nM.

“XD-10606: siRNA targeting SIGLEC7 (sense 5'-ccGuGcAAGAGGGcAuGusa-3'; antisense 5'-dTAcAUGCCCUCUUGcACGGusu-3'; RNA with 2'-O-methyl and phosphorothioate modifications, case key not given here, as printed in the source, key not given here)”: the IC50 is 0.045 nM.

As to “XD-10607: siRNA targeting SIGLEC7 (sense 5'-cgGGcAGGGAAuGauAuasa-3'; antisense 5'-dTUAuAUcAUUCCCUGCCCGusu-3'; as printed in the source, key not given here)”, the IC50 turned out to be 0.039 nM.

For “XD-10608: siRNA targeting SIGLEC7 (sense 5'-gcAGGGAAuGAuAuAAGcsa-3'; antisense 5'-dTGCUuAuAUcAUUCCCUGCusu-3'; as printed in the source, key not given here)”, the IC50 was found to be 0.056 nM.

As for “XD-10609: siRNA targeting SIGLEC7 (sense 5'-ggAAuGAuAuAAGcuGGasa-3'; antisense 5'-dTUCcAGCUuAuAUCAUUCCusu-3'; as printed in the source, key not given here)”, the half-inhibitory concentration (IC50) amounted to 0.059 nM.

In a further data set the test system is VSIG4. In words: siRNA dose response, VSIG4 mRNA knockdown, Dual-Glo Luciferase Assay. Format: cell-based, human. The settings on record: Hepa1-6 + reporter plasmid, 24 hr. The method, then:
as §1, §2, §3, §4
Regarding “XD-09170: siRNA targeting VSIG4 (sense 5'-aaGGcuAcAcccAaGucuudTsdT-3'; antisense 5'-AAGACUUGGGUGuAGCCUUdTsdT-3'; RNA with 2'-O-methyl and phosphorothioate modifications, case key not given here, as printed in the source, key not given here)”, the IC50 was found to be 0.024 nM.

Take “XD-09171: siRNA targeting VSIG4 (sense 5'-cuuucuAcGuGAcucuucudTsdT-3'; antisense 5'-AGAAGAGUcACGuAGAAAGdTsdT-3'; RNA with 2'-O-methyl and phosphorothioate modifications, case key not given here, as printed in the source, key not given here)”: the IC50 amounted to 0.023 nM.

For “XD-09172: siRNA targeting VSIG4 (sense 5'-gcAAccAAGucGugAGAGAdTsdT-3'; antisense 5'-UCUCUcACGACUUGGUUGCdTsdT-3'; RNA with 2'-O-methyl and phosphorothioate modifications, case key not given here, as printed in the source, key not given here)”, the IC50 was less than 0.005 nM.

For the substance “XD-09173: siRNA targeting VSIG4 (sense 5'-cguGAGAGAuAAGauuAcudTsdT-3'; antisense 5'-AGuAAUCUuAUCUCUcACGdTsdT-3'; RNA with 2'-O-methyl and phosphorothioate modifications, case key not given here, as printed in the source, key not given here)”, the concentration for half-maximal inhibition (IC50) is less than 0.005 nM.

“XD-09174: siRNA targeting VSIG4 (sense 5'-aacAAGAGcAuGucuAcGAdTsdT-3'; antisense 5'-UCGuAGAcAUGCUCUUGUUdTsdT-3'; RNA with 2'-O-methyl and phosphorothioate modifications, case key not given here, as printed in the source, key not given here)”: the IC50 is 0.036 nM.

As to “XD-09176: siRNA targeting VSIG4 (sense 5'-cacuAGGAcuuGGucAucAdTsdT-3'; antisense 5'-AGAUGACcAAGUCCuAGUGdTsdT-3'; RNA with 2'-O-methyl and phosphorothioate modifications, case key not given here, as printed in the source, key not given here)”, the half-inhibitory concentration (IC50) stood at 0.031 nM.
